Results from patent US11491245B2, “Gadolinium chelate compounds for use in magnetic resonance imaging” (BAYER PHARMA AKTIENGESELLSCHAFT, priority 2015, dated 2022).
“Also recorded” adds a separate entry of the source.

Columns and labels:
[1] = Whole body imaging (dynamic MRI and tissue Gd concentration); assay type: in vivo, male New Zealand white rabbits; conditions: rabbits
Protocol: The study was performed with a clinical whole body MRI equipped with body spine coil, abdomen flex coil, neck coil (1.5 T Magnetom Avanto, Siemens Healthcare, Erlangen, Germany). The study was done using male New Zealand white rabbits (weight 2.3-3.0 kg, n=8, Charles River Kisslegg). All animals were initially anesthetized using a body weight-adjusted intramuscular injection of a mixture (1+2) of xylazine hydrochloride (20 mg/mL, Rompun 2%, Bayer Vital GmbH, Leverkusen, Germany) and ketamine hydrochloride (100 mg/mL, Ketavet, Pfizer, Pharmacia GmbH, Berlin, Germany) using 1 mL/kg body weight. The continuous anesthesia of the intubated animals (endotracheal tube, Rueschelit Super Safe Clear, cuff 3.0 mm, Willy Ruesch AG, Kernen, Germany) was achieved by the intravenous injection of 0.9 mg propofol per kilogram per hour (10 mg/mL, Propofol-Lipuro 1%, B. Braun Melsungen AG, Melsungen, Germany). The continuous intravenous injection was performed using a MR infusion system (Continuum MR Infusion System, Medrad Europe B. V., A E Beek, Germany). The tracheal respiration (SV 900C, Maquet, Rastatt, Germany) was performed with 55% oxygen, forty breaths per minute and a breathing volume of 7 mL per kilogram body weight per minute.
Dynamic MRI measurements up to 22 min post injection with subsequent quantitative signal analysis (Siemens Mean Curve software (SYNGO Task Card, Siemens Healthcare, Erlangen, Germany), were performed for three different regions head and neck (brain, tongue, chops muscle, neck muscle), abdomen (spleen, liver, blood) and pelvis (extremity muscle). For the three different slice groups a 3D T1-weighted Vibe sequence was used (TR=4.74 ms, TE=2.38, flip=10°, 1:29 min). The dynamic measurements of the three slice groups (Head/Neck: 1:29 min, Abdomen: 0:49 min, Pelvis: 1:16 min) were done up to 22 min post injection: 1. Head/Neck: baseline, 1.4, 5.2, 8.9, 12.8, 16.5, 20.4 min, 2. Abdomen: baseline, 0.5, 4.3, 8.1, 11.9, 15.7, 19.5 min and 3. Pelvis: baseline, 2.9, 6.7, 10.5, 14.4, 18.1, 22.0 min. At 30 min post injection the animals were sacrificed and the Gd concentrations were measured using Inductively Coupled Plasma Mass Spectroscopy (ICP-MS Agilent 7500a, Waldbronn, Germany) in the following tissue samples: blood, brain, tongue, liver and extremity muscle. A quantitative image evaluation was performed for the 30 min time point p.i. due to the combination of the quantitative ICP-MS Gadolinium concentrations and the MRI region-of-interest analysis.

[2] = Pharmacokinetic parameters in rats (blood plasma kinetic); assay type: in vivo, male rats (Han-Wistar)
Protocol: Pharmacokinetic parameters of the compound of Example 3 were determined in male rats (Han-Wistar, 220-230 g, n=3). The compound was administered as a sterile aqueous solution (52.5 mmol Gd/L) as a bolus in the tail vein of the animals. The dose was 0.1 mmol Gd/kg. Blood was sampled 1, 3, 5, 10, 15, 30, 60, 90, 120, 240, 360, 480 and 1440 min post injection and the Gd concentration was determined by Inductively Coupled Plasma Mass Spectroscopy (ICP-MS Agilent 7500a, Waldbronn, Germany). The blood level was converted to plasma concentrations by division by 0.625 (plasma fraction of rat blood, assuming strictly extracellular distribution). As a control, 3 animals were treated in the same way with Gadovist®, a low molecular weight contrast agent.
The fit of the obtained data to a three compartment model (Phoenix—WinNonlin) yielded the pharmacokinetic parameters which are shown in Table 3.

[3] = male rats, 0.1 mmol Gd/kg bolus tail vein, mean
[4] = male rats, 0.1 mmol Gd/kg bolus tail vein, three compartment model, mean

CC(C(=O)NCC(=O)NCC(CNC(=O)CNC(=O)C(C)N1CCN(CC(=O)[O-])CCN(CC(=O)[O-])CCN(CC(=O)[O-])CC1)(CNC(=O)CNC(=O)C(C)N1CCN(CC(=O)[O-])CCN(CC(=O)[O-])CCN(CC(=O)[O-])CC1)CNC(=O)CNC(=O)C(C)N1CCN(CC(=O)[O-])CCN(CC(=O)[O-])CCN(CC(=O)[O-])CC1)N1CCN(CC(=O)[O-])CCN(CC(=O)[O-])CCN(CC(=O)[O-])CC1.[Gd+3].[Gd+3].[Gd+3].[Gd+3] (stereo not shown) [Example 3, Tetragadolinium [4,10-bis(carboxylatomethyl)-7-{3,6,12,15-tetraoxo-16-[4,7,10-tris-(carboxylatomethyl)-1,4,7,10-tetraazacyclododecan-1-yl]-9,9-bis({[({2-[4,7,10-tris-(carboxylatomethyl)-1,4,7,10-tetraazacyclododecan-1-yl]propanoyl}amino)acetyl]-amino}methyl)-4,7,11,14-tetraazaheptadecan-2-yl}-1,4,7,10-tetraazacyclododecan-1-yl]acetate]
slope of the linear regression between tissue gadolinium concentration and MRI signal change ([1]; tissues 30 min p.i., FIGS. 8A and 8B): 1.9
time course of contrast enhancements / signal changes ([1]; various tissues, up to 22 min post injection, vs Reference compound 1, FIG. 7): No differences in the time course of signal changes were observed; also recorded: no differences in the time course of contrast enhancements were observed
contrast enhancement (amplitude) ([1]; various tissues, vs Reference compound 1, FIG. 7): higher compared to that of Reference compound 1
AUC∞ Area under the curve (to infinity) [2, 3]: 9040 µmol·min/L
MRT Mean residence time [2, 3]: 24.1 min
V1 + V2 Volume, compartments V1 + V2 [2, 3]: 0.26 L/kg
V2 Volume, compartment V2 [2, 3]: 0.15 L/kg
Vc (V1) Volume, central compartment V1 [2, 3]: 0.11 L/kg
Vd,ss Volume of distribution at steady state [2, 3]: 0.28 L/kg
t½ α Half-life, compartment V1 [2, 4]: 1.7 min
t½ β Half-life, compartment V2 [2, 4]: 18.2 min
t½ γ Half-life, compartment V3 [2, 4]: 133 min
pharmacokinetic profile (blood plasma kinetic) ([2]; rats, versus Gadovist®, FIG. 1): comparable to that of Gadovist®
